Laboratory results as given in patent publication US9623021B2, “Nuclear receptor binding agents” (GTX, Inc., priority 2007, dated 2017).
“Also recorded” adds a separate entry of the source.

Columns and labels:
ARPE-19 cells = assay: Fluorescent detection of intracellular ROS in ARPE-19 cells (tBH oxidative stress); details: 150 μM tBH, FIG. 20B
[1] = molecular target: ERα ligand binding domain (Homo sapiens (Human), UniProt P03372); assay: Competitive [3H]-estradiol radioligand binding, ERα (Example 21)
Protocol: (§1) ER binding affinity was determined via one of the following methods:
(§2) Briefly, the incubation mixture was filtered through a high affinity protein binding filter, and washed several times to remove any unbound radioactivity. The filter plate was air dried and sealed on the bottom.
(§3) Following incubation, plates were harvested onto GF/B filters and radioactivity was measured with a TopCount NXT (PerkinElmer). Nonspecific binding was subtracted from total binding to yield specific binding.

[2] = system: THP-1 macrophage cell adhesion to bEND-3 endothelial cells; assay: Macrophage adhesion assay (LPS induced THP-1 adhesion to bEND-3 endothelial cells); assay type: cell-based; details: FIG. 13
Protocol: To determine the anti-inflammatory effects of ER-β NRBAs in vitro, a macrophage adhesion assay was performed. Macrophages adhere to endothelial cells due to elevated levels of pro-inflammatory cytokines. This principle was used in this assay to determine the effect of one of the ER-β NRBAs on bacterial lipopolysaccharide (LPS) induced THP-1 macrophage cell adhesion to bEND-3 endothelial cells.

[3] = molecular target: ERβ ligand binding domain (Homo sapiens (Human), UniProt Q92731); assay: Competitive [3H]-estradiol radioligand binding, ERβ (Example 21); details: ratio between the binding constants of ER-α and ER-β
Protocol: as §1, §2, §3

PPAR-α = PPAR-α transactivation (PPRE-LUC) in HEK-293 cells co-transfected with ER-β; assay type: cell-based; details: FIG. 12A right panel
Protocol: (§4) FIG. 12 depict the effect of ER-β ligand on PPAR-γ function through ligand binding domain (LBD). (A). HEK-293 cells were transfected with 0.25 μg PPRE-LUC, 5 ng CMV-renilla LUC and the indicated receptors (PPAR-γ and ER-β for the left panel and PPAR-α and ER-β for the right panel). The cells were treated 24 hrs after transfection with the indicated ligands and harvested 48 hrs after transfection and firefly luciferase activity was measured and normalized to renilla luciferase. (B). H475 in ER-β LBD is important for its function. H475 in ER-β LBD was mutated to alanine (A) using a site directed mutagenesis kit. Transactivation assay was performed as described in panel A in HEK-293 cells with a titration of ER-β ligands in wild type or ER-β H475A. (C). […] The cells were treated 24 hrs after transfection with the indicated ligands and harvested 48 hrs after transfection and firefly luciferase activity was measured and normalized to renilla luciferase. […] The cells were treated 24 hrs after transfection with the indicated ligands and harvested 48 hrs after transfection and firefly luciferase activity was measured and normalized to renilla luciferase. […] The cells were treated 24 hrs after transfection with the indicated ligands and harvested 48 hrs after transfection and firefly luciferase activity was measured and normalized to renilla luciferase. […]

[4] = system: high fat diet fed C57BL6 mice; assay: High fat diet induced obesity model, prevention studies (studies 1 and 2)
Protocol: Study A: C57BL6 male mice of 4 weeks of age were divided into different groups and were fed with a normal or high fat diet (Harlan, Ind.).
For the treatment study (study 3), the animals were maintained on the irrespective diets for 6 weeks and then treated daily as indicated for an additional 18 weeks. Biweekly body weights and food consumption were measured. The animals were sacrificed at the end of each study and blood and tissues were collected for RNA isolation, histology and protein estimation.
Cholesterol and leptin concentrations were measured in serum using ELISA-based methods.
Histology was performed on cryosections and stained with oil 0 red.
Oral glucose tolerance tests (OGTT) were performed on 16-h fasted mice. Mice were given 150 mg glucose by oral gavage through a gastric tube.
Six week old C57BL/6 mice were randomized, based on body weight, into three study groups as shown in the Study Parameters Table below.
The mice were treated for 12 weeks. Twice weekly, the body weight and feed consumption were measured.
A glucose tolerance test was also performed at the completion of the study by administering 150 mg glucose orally to the mice and measuring blood glucose levels at 0, 15, 30 and 60 minutes post glucose administration.
At sacrifice, the mice organ weights were measured and collected for histology, gene expression and protein expressions. Blood was collected for serum marker determination (cholesterol, glucose, leptin).
Dual energy X-ray absorptiometry (DEXA) was performed to measure the body composition in Study 1.
An MRI scan was performed at the beginning of the study, after 6 weeks and at the completion of the study.

PPAR-γ = PPAR-γ transactivation (PPRE-LUC) in HEK-293 cells co-transfected with ER-β; assay type: cell-based; details: FIG. 12A left panel
Protocol: as §4

[5] = system: Ishikawa endometrial cells; assay: Ishikawa growth assay (alkaline phosphatase); assay type: cell-based
Protocol: Ishikawa cells were plated at 15,000 cells/well in 24 well plates in DME:F12 (1:1)+5% csFBS w/o phenol red. The cells were maintained in this medium at 37° C. for 3 days. Medium was changed immediately prior to drug treatment for an additional 72 hrs. After 72 hrs, the cells were fixed with formalin and the amount of alkaline phosphatase (ALP) measured by para-nitrophenyl phosphate method.
This effect is one potential concern in the development of ER-α SERMs.

ER-α [6] = molecular target: T1, ER-α (Rattus norvegicus (Rat), UniProt P06211); assay: Transient transfection and reporter gene assay, ER-α, HEK-293 cells (Example 22A); assay type: cell-based; details: ERE-LUC
Protocol: Human estrogen receptors (ER-α and ER-β) were cloned from prostate cDNA into a pCR3.1 plasmid vector backbone. PGC-1 was cloned into mammalian two hybrid vector pACT. ER-β H475 was mutated to alanine using site-directed mutagenesis. Sequencing was performed to determine the absence of any non specific mutations. SHP promoter (−572 to +10) (26) was cloned into pGL3 basic LUC reporter vector and human FXR was cloned into pCR3.1. HEK-293 cells were plated at 100,000 cells per well of a 24 well plate in […] (DMEM)+5% charcoal-stripped fetal bovine serum (csFBS). The cells were transfected using Lipofectamine (Invitrogen, Carlsbad, Calif.) with 0.25 μg ERE-LUC, 0.02 μg CMV-LUC (renilla luciferase) and 12.5 ng of rat ER-α or 25 ng rat ER-β. […] Luciferase assays were performed 48 hrs after transfection.
To determine if the selectivity in ER binding also translated into ER-β-selective activity, transient transactivation assays were performed in HEK-293 cells transfected with plasmids encoding ER-α or ER-β and ERE-LUC. The cells were treated with varying concentrations of the ligands and their EC50 values were determined.

ER-α [7] = molecular target: T1, ER-α; assay type: cell-based; details: 100 nM NRBA compared to 1 nM estradiol
Protocol: COS or 293 cells were plated in DME without phenol red+10% cs FBS at 90,000 cells per well in 24 well plates, and were transfected with 0.25 μg of the vector “ERE-LUC”, where a firefly luciferase gene was driven by two estrogen responsive elements and 0.02 μg of the control CMV-LUC, Renilla where a luciferase gene was driven by a CMV promoter. […] All the receptors were cloned from rat tissue into the PCR3.1 vector backbone. Twenty four hours post transfection, cells were treated with compounds of this invention, estrogen, DHT, and other NRBAs or combinations thereof. Cells were harvested 48 hrs after transfection, and assayed for firefly and Renilla luciferase activity.

SHP promoter [8] = assay: SHP promoter-luciferase in HEK-293 cells transfected with FXR and ER-β; assay type: cell-based; details: FXR and ER-β plasmids, FIG. 12E right panel
Protocol: FIG. 12 depict the effect of ER-β ligand on PPAR-γ function through ligand binding domain (LBD). (A). HEK-293 cells were transfected with 0.25 μg PPRE-LUC, 5 ng CMV-renilla LUC and the indicated receptors (PPAR-γ and ER-β for the left panel and PPAR-α and ER-β for the right panel). The cells were treated 24 hrs after transfection with the indicated ligands and harvested 48 hrs after transfection and firefly luciferase activity was measured and normalized to renilla luciferase. (B). H475 in ER-β LBD is important for its function. H475 in ER-β LBD was mutated to alanine (A) using a site directed mutagenesis kit. Transactivation assay was performed as described in panel A in HEK-293 cells with a titration of ER-β ligands in wild type or ER-β H475A. (C). […] HEK-293 cells were transfected with 0.25 μg PPRE-LUC, 5 ng CMV-renilla LUC and 50 ng of the indicated receptors (PPAR-γ or PPAR-γ and wild type ER-β or PPAR-γ and ER-β H475A). The cells were treated 24 hrs after transfection with the indicated ligands and harvested 48 hrs after transfection and firefly luciferase activity was measured and normalized to renilla luciferase. (D). […] HepG2 cells were transfected with 0.25 μg PPRE-LUC, 5 ng CMV-renilla LUC, 0.5 μg PGC-1 or vector backbone and 100 ng of the indicated receptors (PPAR-γ or PPAR-γ and wild type ER-β or PPAR-γ and ER-β H475A for top panels and PPAR-α or PPAR-α and ER-β for bottom panel). The cells were treated 24 hrs after transfection with the indicated ligands and harvested 48 hrs after transfection and firefly luciferase activity was measured and normalized to renilla luciferase. (E). SHP-1 is an ER-β specific target gene. HEK-293 cells were transfected with 0.25 μg SHP-LUC, 5 ng CMV-renilla LUC and 50 ng of the indicated receptors (FXR and ER-α for the left panel and FXR and ER-β for the right panel). The cells were treated 24 hrs after transfection with the indicated ligands and harvested 48 hrs after transfection and firefly luciferase activity was measured and normalized to renilla luciferase. […]

SHP promoter [9] = assay: SHP promoter-luciferase in HEK-293 cells transfected with FXR and ER-α; assay type: cell-based; details: FIG. 12E left panel
Protocol: as §4

[10] = Brown Adipose Tissue, vs high fat diet vehicle, >2-fold, p<0.01
[11] = Liver, vs high fat diet vehicle, >2-fold, p<0.01
[12] = White Adipose Tissue, vs high fat diet vehicle, >2-fold, p<0.01
[13] = high fat diet, 30 mg/kg/day s.c., 12 weeks
[14] = high fat diet, 30 mg/kg/day s.c., 12 weeks, FIG. 7
[15] = high fat diet, 30 mg/kg/day s.c., 12 weeks, study 1
[16] = high fat diet, 30 mg/kg/day s.c., Study 2

ERα ligand binding domain, sequence (P03372 whole entry, looked up, species assumed, the tested form may be a part): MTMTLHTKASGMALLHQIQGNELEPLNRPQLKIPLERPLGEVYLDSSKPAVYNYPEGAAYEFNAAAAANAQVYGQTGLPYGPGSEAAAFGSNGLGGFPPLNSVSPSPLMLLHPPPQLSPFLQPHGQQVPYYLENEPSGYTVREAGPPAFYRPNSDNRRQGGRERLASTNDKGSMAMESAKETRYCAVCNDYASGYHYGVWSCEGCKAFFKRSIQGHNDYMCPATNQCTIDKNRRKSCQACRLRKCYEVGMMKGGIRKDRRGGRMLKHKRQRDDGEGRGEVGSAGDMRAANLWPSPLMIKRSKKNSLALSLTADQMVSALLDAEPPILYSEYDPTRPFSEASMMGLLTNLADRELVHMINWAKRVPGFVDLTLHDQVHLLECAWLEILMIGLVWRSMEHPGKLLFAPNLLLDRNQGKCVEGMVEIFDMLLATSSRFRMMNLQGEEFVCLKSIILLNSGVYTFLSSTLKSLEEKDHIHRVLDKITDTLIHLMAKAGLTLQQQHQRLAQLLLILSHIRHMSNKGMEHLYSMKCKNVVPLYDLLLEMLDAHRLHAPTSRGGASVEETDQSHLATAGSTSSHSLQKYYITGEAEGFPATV
ERβ ligand binding domain, sequence (Q92731 264-498, species assumed): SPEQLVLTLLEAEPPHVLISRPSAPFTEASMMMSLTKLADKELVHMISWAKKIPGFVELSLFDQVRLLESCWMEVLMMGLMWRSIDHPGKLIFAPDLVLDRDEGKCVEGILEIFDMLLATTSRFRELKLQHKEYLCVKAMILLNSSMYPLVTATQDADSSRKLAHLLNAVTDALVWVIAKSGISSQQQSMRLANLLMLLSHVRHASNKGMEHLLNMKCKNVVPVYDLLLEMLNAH

Structure (SMILES): O=c1c2c(O)cc(O)cc2c(Cl)cn1-c1ccc(O)cc1 [Compound 12y, 4-chloro-6,8-dihydroxy-2-(4-hydroxyphenyl)isoquinolin-1(2H)-one]
- prevention of ROS formation / oxidative damage (ARPE-19 cells): protected ARPE-19 cells from oxidative damage
- Ki [1]: 36 nM
- adhesion of 3H labeled THP-1 cells to bEND-3 cells [2]: significantly inhibited the adhesion
- Ki Ratio (ER-α/ER-β) [3]: 11

Structure (SMILES): N#Cc1cn(-c2ccc(O)cc2)c(=O)c2c(O)cc(O)cc12 [Compound 14m, 6,8-dihydroxy-2-(4-hydroxyphenyl)-1-oxo-1,2-dihydroisoquinoline-4-carbonitrile]
- WY14643 induced PPAR-α transactivation (PPAR-α): did not affect
- prevention of body weight increase caused by the high fat diet ([4]; 30 mg/kg/day s.c., 12 weeks, Study 2): more than 50%
- high fat diet increase in expression of genes that promote lipogenesis (LPL, FASN, SREBP-1, PLTP, Dhcr24) ([4]; BAT and WAT): reversed
- Ddit3 (DNA damage inducible transcript III) gene expression [4, 10]: Decrease
- Dhcr24 (dehydrocholesterol reductase) gene expression [4, 10]: Decreased
- ER-β (Estrogen receptor β) gene expression [4, 10]: Increased
- GPx-3 (glutathione peroxidase) gene expression [4, 10]: Increase
- LPL (lipoprotein lipase) gene expression [4, 10]: Decrease
- PLTP (phospholipid transfer protein) gene expression [4, 10]: Decrease
- UCP-1 (uncoupled protein-1) gene expression [4, 10]: Increased
- CIDEA (Cell death inducing DNA fragmentation factor) gene expression [4, 11]: Decrease
- GPx-3 (glutathione peroxidase) gene expression [4, 11]: Increase
- Ddit3 (DNA damage inducible transcript III) gene expression [4, 12]: Decrease
- FASN (fatty acid synthase) gene expression [4, 12]: Decrease
- LPL (lipoprotein lipase) gene expression [4, 12]: Decrease
- SREBP1 (Sterol regulatory element binding protein 1) gene expression [4, 12]: Decrease
- bone mineral content (BMC), DEXA [4, 13]: prevented the loss in BMC
- serum cholesterol increase by high fat diet [4, 13]: significantly reversed
- serum leptin increase by high fat diet [4, 13]: significantly reversed
- white adipose tissue (WAT) weight ([4]; high fat diet, 30 mg/kg/day s.c., 12 weeks, FIG. 6B): significantly reduced
- gastrocnemius muscle weight [4, 14]: increased gastrocnemius muscle weight
- white adipose tissue (WAT) weight [4, 14]: prevented the increase in the WAT weight; also recorded: comparably decreased WAT weight
- body fat (DEXA) [4, 15]: suppressing fat mass formation
- reduction in body weight compared to high fat diet and vehicle [4, 15]: greater than 85%
- weight gained more than normal diet-fed controls [4, 15]: 5%
- serum macrophage inflammatory protein-1β (MIP-1β) increase by high fat diet ([4]; high fat diet, 30 mg/kg/day s.c., FIG. 6F): completely reversed
- accumulation of fat in the liver (oil red staining) ([4]; high fat diet, 30 mg/kg/day s.c., FIG. 8): attenuated the accumulation of lipid droplets in the liver; also recorded: completely prevented the accumulation of fat in the liver
- fat mass (MRI) [4, 16]: reduce fat mass
- lean mass (MRI) [4, 16]: increase muscle mass; also recorded: increased the lean mass
- prevention of the increase in body fat (MRI) [4, 16]: more than 50%
- total caloric intake (feed consumption) ([4]; high fat diet, 30 mg/kg/day s.c., study 1): did not affect total caloric intake
- blood glucose levels, glucose tolerance test ([4]; high fat diet, 30 mg/kg/day s.c., 150 mg glucose orally): not statistically different from the normal diet controls
- testes weights ([4]; high fat diet, 12 weeks, FIG. 9A): not altered
- serum testosterone levels ([4]; high fat diet, 12 weeks, FIG. 9B): did not affect; also recorded: not altered
- serum follicle stimulating hormone (FSH) ([4]; high fat diet, 12 weeks, FIG. 9C): did not affect; also recorded: not altered
- troglitazone-induced PPAR-γ activity (PPAR-γ): partially inhibited
- Ishikawa cell proliferation ([5]; FIG. 3C): weakly induce
- concentration at which proliferation of Ishikawa cells was induced ([5]; highest concentration tested, ALP assay, 72 hrs): 1 µM
- function at ER-α in transactivation (ER-α [6]): agonists
- Estradiol activity at 100 nM, ER-α (ER-α [7]): 49%
- SHP activity (SHP promoter [8]): neither of the ligands activated SHP

Structure (SMILES): CCCc1c(-c2ccc(O)cc2)nn(-c2ccc(O)cc2)c1-c1ccc(O)cc1 [PPT, 1,3,5-tris(4-hydroxyphenyl)-4-propyl-1H-pyrazole]
- SHP activity (SHP promoter [9]): increased SHP activity
